Source: PMC11042242, “1,5-Disubstituted tetrazoles as PD-1/PD-L1 antagonists” (RSC Medicinal Chemistry, 2024)
pIC50: −log10 of the molar value.

Experiments:
[1] = biological target: PD-1/PD-L1 complex (Homo sapiens, UniProt Q9NZQ7); details: for IC50 (nM), SAR toward PD-L1 based on the HTRF methodology / IC50: 5 nM hPD-L1, 50 nM hPD-1, 10f, 10l, 10p IC50 measured with 6 concentrations, remaining compounds estimated from scouting mode (50 and 5 nM) by translation of average Hill's fits; for IC50: read-out: IC50 (nM), SAR toward PD-L1 based on the HTRF methodology; for activity towards dissociating the PD-1/PD-L1 complex: one-point experiment at 50 and 5 nM concentrations of each inhibitor
PD-1/PD-L1 complex, sequence (Q9NZQ7 19-238 limits assumed, one chain of several): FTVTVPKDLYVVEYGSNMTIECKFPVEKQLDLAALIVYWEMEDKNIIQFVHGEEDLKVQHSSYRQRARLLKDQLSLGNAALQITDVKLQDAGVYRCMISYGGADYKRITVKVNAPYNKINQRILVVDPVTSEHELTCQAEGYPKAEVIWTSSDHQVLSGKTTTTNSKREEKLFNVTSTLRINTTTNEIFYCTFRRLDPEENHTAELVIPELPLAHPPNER
Protocol: Homogenous Time Resolved Fluorescence
HTRF was performer using the certified Cis-Bio assay according to the manufacturer’s guidelines.
experiments were performed at 5 nM of hPD-L1 and 50 nM of hPD-1 in the final formulation at 20 µL final
After mixing all components according to Cis-Bio protocol, the plate was left for 1h incubation
at room temperature followed by TR-FRET measurement on Tecan Spark 20M. To determine the activity of tested
compounds data was collected for 2 different concentrations of the ligand: 50 nM and 5 nM in the final volume.
All measurements were performed on two individual
dilution series, unless states otherwise. Collected data was background subtracted on the negative control,
normalized on the positive control, averaged and for IC50 determination fitted with normalized Hill’s equation to
determine the IC50 value using Mathematica 12. For remaining compounds, which were measured in scouting
mode, the inhibitory constants were approximated by translation of the average Hill’s fits of fully described
compounds to match the experimental datapoints. Since all compounds reported here are closely related, the slope
of Hill’s fit that determines the shape of the curve is therefore similar across them.

[2] = biological target: T1, human PD-L1 (hPD-L1) (Homo sapiens, UniProt Q9NZQ7); test: 1H NMR titration experiment with hPD-L1; assay type: binding; details: molar ratio of protein to inhibitor 1 : 1; PBS pH 7.4, 0.2 mM PD-L1
T1 construct: PD-L1 gene (amino acids 18-134); made in house
T1 sequence (Q9NZQ7 18-134): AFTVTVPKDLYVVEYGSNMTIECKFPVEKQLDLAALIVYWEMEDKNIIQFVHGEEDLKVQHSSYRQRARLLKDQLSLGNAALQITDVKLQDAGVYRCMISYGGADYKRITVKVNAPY
Protocol: The corresponding behaviour is characteristic of hPD-L1 oligomerization, previously observed by our group with BMS reference compounds.[20]
Fig. 2 Aliphatic part of the ^1H NMR spectra of PD-L1 with tetrazole-based inhibitors. ^1H NMR spectra of hPD-L1 protein (blue), PD-L1 and compounds: (A) 10f, (B) 10p, and (C) 10l in protein to inhibitor molar ratios of 1 : 1 (red) and 1 : 10 (green), respectively.
NMR spectra were recorded in PBS pH 7.4 containing 10% (v/v) of D2O added to the samples to provide the lock signal. Water suppression was carried out using the WATERGATE pulse sequence. All the spectra were recorded at 300 K using a Bruker Avance III 600 MHz spectrometer. The spectra were recorded at the protein/ligand at the molar ratio 1:1 and 1:10. The sample were prepared by adding the appropriate amounts of inhibitor, from 50 mM ligand stock solution in DMSO-d6, to the protein solution of PD-L1 at a concentration of 0.2 mM. Spectra were visualized using TopSpin 3.2
Protein expression and purification
E. coli strain BL21 was transformed with pET-21b plasmid carrying PD-L1 gene (amino acids 18-134). The bacteria were cultured in LB at 37°C until OD600nm of 0.6 when the recombinant protein production was induced with 1 mM IPTG. The protein production was continued overnight. Inclusion bodies were collected by centrifugation, washed twice with 50 mM Tris-HCl pH 8.0 containing 200 mM NaCl, 10 mM EDTA, 10 mM 2-mercaptoethanol and 0.5% Triton X-100, followed by a single wash with the same buffer but with no Triton X-100. The washed inclusion bodies were resuspended overnight in 50 mM Tris-HCl pH 8.0, 6 M GuHCl, 200 mM NaCl and 10 mM 2-mercaptoethanol and clarified with centrifugation. Refolding of PD-L1 was performed by drop-wise dilution into 0.1 M Tris-HCl pH 8.0 containing 1 M L-arginine hydrochloride, 0.25 mM oxidized glutathione and 0.25 mM reduced glutathione. […]
7.4. The quality of the refolded protein was evaluated by SDS-PAGE and NMR. […]

[3] = system: PD-L1; set-up: method as in PMID 35585982; details: printed in Fig. 1B, patented PD-L1 dimerizers by Maxinovel Pharma; cited from earlier work

SMILES | IC50 (nM), SAR toward PD-L1 based on the HTRF methodology [1] | IC50 [1] | other results
COc1cccc(CNC(c2nnnn2/C=C/c2cccc(-c3ccccc3)c2C)C(C)C)c1OC (centres unmarked) [10b] | Inactive | – | –
Cc1c(/C=C/n2nnnc2C(CCl)NCc2ccco2)cccc1-c1ccccc1 (centres unmarked) [10c] | Inactive | – | –
Cc1c(/C=C/n2nnnc2CN[C@]23CC4CC(C[C@@](O)(C4)C2)C3)cccc1-c1ccccc1 [10h] | Inactive | – | –
Cc1c(/C=C/n2nnnc2CN2CCOC2)cccc1-c1ccccc1 [10k] | – | 1000 nM | –
Cc1c(/C=C/n2nnnc2CN[C@]23CC4CC(C[C@@](O)(C4)C2)C3)cccc1-c1ccc2c(c1)OCCO2 [10m] | Inactive | – | –
Cc1c(/C=C/n2nnnc2CNCCCCO)cccc1-c1ccc2c(c1)OCCO2 [10o] | – | 1130 nM | –
Cc1c(/C=C/n2nnnc2C(C)NCCCO)cccc1-c1ccc2c(c1)OCCO2 (centres unmarked) [10p] | – | 254 nM | activity towards dissociating the PD-1/PD-L1 complex [1]: better activity; hPD-L1 oligomerization upon addition of the ligand (broadening of hPD-L1 proton signals) [2]: protein oligomerization
Cc1c(COc2cc(OCc3cccc(C#N)c3)c(CN3C[C@H](O)C[C@@H]3C(=O)O)cc2Cl)cccc1-c1ccc2c(c1)OCCO2 [BMS-1166, reference compound] | – | – | undissociated PD-1/PD-L1 complex ([1]; one-point experiment, 50 and 5 nM concentrations of inhibitor): 42.1 ± 6.4%
Cc1c(/C=C/c2cc(CNC(C)(CO)C(=O)O)ccc2C(F)(F)F)cccc1-c1ccc2c(c1)OCCO2 (centres unmarked) [MAX-10181] | – | – | pIC50 [3]: 7.74

Further lines, with some results ahead:

IC50 (nM), SAR toward PD-L1 based on the HTRF methodology [1] | IC50 [1] | SMILES | other results
Inactive | – | Cc1c(/C=C/n2nnnc2C(CC(C)C)NCCN2CCOCC2)cccc1-c1ccccc1 (centres unmarked) [10a] | –
– | 1770 nM | Cc1c(/C=C/n2nnnc2C(NCc2ccncc2)C2CC2)cccc1-c1ccccc1 (centres unmarked) [10d] | –
Inactive | – | Cc1c(/C=C/n2nnnc2CNCC(C)(C)C)cccc1-c1ccccc1 [10e] | –
– | 408 nM | CCNCc1nnnn1/C=C/c1cccc(-c2ccccc2)c1C [10f] | activity towards dissociating the PD-1/PD-L1 complex [1]: better activity; hPD-L1 oligomerization upon addition of the ligand (broadening of hPD-L1 proton signals) [2]: protein oligomerization
– | 1800 nM | Cc1c(/C=C/n2nnnc2C(C)NCCCO)cccc1-c1ccccc1 (centres unmarked) [10g] | –
– | 460 nM | Cc1c(/C=C/n2nnnc2CN2CCCCOC2)cccc1-c1ccccc1 [10i] | –
– | 1840 nM | Cc1c(/C=C/n2nnnc2CNCCCCCO)cccc1-c1ccccc1 [10j] | –
– | 944 nM | Cc1c(/C=C/n2nnnc2CN2CCCOC2)cccc1-c1ccccc1 [10l] | activity towards dissociating the PD-1/PD-L1 complex [1]: better activity; hPD-L1 oligomerization upon addition of the ligand (broadening of hPD-L1 proton signals) [2]: protein oligomerization
– | 2850 nM | Cc1c(/C=C/n2nnnc2CNCCCCCO)cccc1-c1ccc2c(c1)OCCO2 [10n] | –
Inactive | – | Cc1c(/C=C/n2nnnc2CNCCO)cccc1-c1ccc2c(c1)OCCO2 [10q] | –
– | 1130 nM | Cc1c(/C=C/n2nnnc2CN2CCCOC2)cccc1-c1ccc2c(c1)OCCO2 [10r] | –
